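Compound exposure: 48 hours, 5 concentrations, 96-well plates. GI50 = concentration required for 50% inhibition of growth.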 Active and inactive are the calls of the source. No stated cut-off is given here; in the data, active = GI50 up to about 1.1 µM and inactive = higher.
What was measured:
Experiment in all cases: NCI-60 cell line screen, 48 h
SW-620 = tested on: SW-620
HCT-116 = tested on: HCT-116
HT-29 = tested on: HT-29
SF-268 = tested on: SF-268
OVCAR-3 = tested on: OVCAR-3
NCI-H460 = tested on: NCI-H460
OVCAR-5 = tested on: OVCAR-5
NCI-H23 = tested on: NCI-H23
CCRF-CEM = tested on: CCRF-CEM
UACC-257 = tested on: UACC-257
NCI-H226 = tested on: NCI-H226
MDA-N = tested on: MDA-N
TK-10 = tested on: TK-10
NCI/ADR-RES = tested on: NCI/ADR-RES
EKVX = tested on: EKVX
RXF 393 = tested on: RXF 393
MOLT-4 = tested on: MOLT-4
COLO 205 = tested on: COLO 205
SNB-19 = tested on: SNB-19
OVCAR-4 = tested on: OVCAR-4
BT-549 = tested on: BT-549
A549 = tested on: A549
MDA-MB-231 = tested on: MDA-MB-231
SK-MEL-28 = tested on: SK-MEL-28
KM12 = tested on: KM12
SR = tested on: SR
HOP-62 = tested on: HOP-62
OVCAR-8 = tested on: OVCAR-8
RPMI-8226 = tested on: RPMI-8226
M14 = tested on: M14
SN12C = tested on: SN12C
HL-60 = tested on: HL-60
SK-MEL-2 = tested on: SK-MEL-2
SK-MEL-5 = tested on: SK-MEL-5
U-251 = tested on: U-251
K562 = tested on: K562
SNB-75 = tested on: SNB-75
UACC-62 = tested on: UACC-62
CAKI-1 = tested on: CAKI-1
MDA-MB-435 = tested on: MDA-MB-435
DU-145 = tested on: DU-145
SF-539 = tested on: SF-539
IGROV-1 = tested on: IGROV-1
ACHN = tested on: ACHN
SF-295 = tested on: SF-295
PC-3 = tested on: PC-3
SK-OV-3 = tested on: SK-OV-3
MCF7 = tested on: MCF7
LOX IMVI = tested on: LOX IMVI
Hs-578T = tested on: Hs-578T
HCC 2998 = tested on: HCC 2998
HOP-92 = tested on: HOP-92
UO-31 = tested on: UO-31
T47D = tested on: T47D
Malme-3M = tested on: Malme-3M
NCI-H522 = tested on: NCI-H522
786-0 = tested on: 786-0
HCT-15 = tested on: HCT-15
A498 = tested on: A498

Structure (SMILES): COc1cccc(CC2Cc3ccccc3CC(=O)N2)c1 (stereo unspecified)
- GI50 (SW-620): 85.1 µM (inactive)
- GI50 (HCT-116): 49 µM (inactive)
- GI50 (HT-29): 92.7 µM (inactive)
- GI50 (SF-268): 46.2 µM (inactive)
- GI50 (OVCAR-3): 20.4 µM (inactive)
- GI50 (NCI-H460): 20.9 µM (inactive)
- GI50 (OVCAR-5): 11.7 µM (inactive)
- GI50 (NCI-H23): 42.6 µM (inactive)
- GI50 (CCRF-CEM): 58.3 µM (inactive)
- GI50 (UACC-257): 29.2 µM (inactive)
- GI50 (NCI-H226): 20.8 µM (inactive)
- GI50 (MDA-N): 48.1 µM (inactive)
- GI50 (TK-10): 29.9 µM (inactive)
- GI50 (NCI/ADR-RES): 20 µM (inactive)
- GI50 (EKVX): 35.6 µM (inactive)
- GI50 (RXF 393): 26.8 µM (inactive)
- GI50 (MOLT-4): 31.3 µM (inactive)
- GI50 (COLO 205): 74.1 µM (inactive)
- GI50 (SNB-19): 90.8 µM (inactive)
- GI50 (OVCAR-4): > 100 µM (inactive)
- GI50 (BT-549): 28 µM (inactive)
- GI50 (A549): 34.1 µM (inactive)
- GI50 (MDA-MB-231): 10 µM (inactive)
- GI50 (SK-MEL-28): 54.2 µM (inactive)
- GI50 (KM12): 22 µM (inactive)
- GI50 (SR): > 100 µM (inactive)
- GI50 (HOP-62): 9.18 µM (inactive)
- GI50 (OVCAR-8): 53.8 µM (inactive)
- GI50 (RPMI-8226): 37.6 µM (inactive)
- GI50 (M14): 14 µM (inactive)
- GI50 (SN12C): 69 µM (inactive)
- GI50 (HL-60): 40.1 µM (inactive)
- GI50 (SK-MEL-2): 42.2 µM (inactive)
- GI50 (SK-MEL-5): 20.6 µM (inactive)
- GI50 (U-251): 47.1 µM (inactive)
- GI50 (K562): 80 µM (inactive)
- GI50 (SNB-75): > 100 µM (inactive)
- GI50 (UACC-62): 39.8 µM (inactive)
- GI50 (CAKI-1): 16.6 µM (inactive)
- GI50 (MDA-MB-435): 32.7 µM (inactive)
- GI50 (DU-145): > 100 µM (inactive)
- GI50 (SF-539): 88.5 µM (inactive)
- GI50 (IGROV-1): 16.9 µM (inactive)
- GI50 (ACHN): 76.2 µM (inactive)
- GI50 (SF-295): 34.9 µM (inactive)
- GI50 (PC-3): 31 µM (inactive)
- GI50 (SK-OV-3): 62.8 µM (inactive)
- GI50 (MCF7): 30.4 µM (inactive)
- GI50 (LOX IMVI): 10.1 µM (inactive)
- GI50 (Hs-578T): 21.4 µM (inactive)
- GI50 (HCC 2998): 72.1 µM (inactive)
- GI50 (HOP-92): 24.1 µM (inactive)
- GI50 (UO-31): 20.8 µM (inactive)
- GI50 (T47D): 41.5 µM (inactive)

Structure (SMILES): O=C1OC(C2Cc3cc4c(cc3C2=O)CCC4)c2ccccc21 (stereo unspecified)
- GI50 (SW-620): 37.3 µM (inactive)
- GI50 (HCT-116): 36.6 µM (inactive)
- GI50 (HT-29): 30.6 µM (inactive)
- GI50 (SF-268): 45.7 µM (inactive)
- GI50 (Malme-3M): > 100 µM (inactive)
- GI50 (OVCAR-3): 77.6 µM (inactive)
- GI50 (NCI-H460): 40 µM (inactive)
- GI50 (OVCAR-5): > 100 µM (inactive)
- GI50 (NCI-H23): 47.1 µM (inactive)
- GI50 (CCRF-CEM): 25.6 µM (inactive)
- GI50 (UACC-257): > 100 µM (inactive)
- GI50 (NCI-H226): 20.6 µM (inactive)
- GI50 (MDA-N): 75.3 µM (inactive)
- GI50 (TK-10): > 100 µM (inactive)
- GI50 (NCI/ADR-RES): 63.4 µM (inactive)
- GI50 (NCI-H522): 50.4 µM (inactive)
- GI50 (EKVX): 49.5 µM (inactive)
- GI50 (MOLT-4): 23.7 µM (inactive)
- GI50 (COLO 205): 33.9 µM (inactive)
- GI50 (SNB-19): 32.1 µM (inactive)
- GI50 (OVCAR-4): 78.3 µM (inactive)
- GI50 (BT-549): > 10 µM (inactive)
- GI50 (A549): 44.7 µM (inactive)
- GI50 (MDA-MB-231): 36.6 µM (inactive)
- GI50 (SK-MEL-28): 38.5 µM (inactive)
- GI50 (KM12): 35.9 µM (inactive)
- GI50 (SR): 35.7 µM (inactive)
- GI50 (HOP-62): 65 µM (inactive)
- GI50 (OVCAR-8): 67.1 µM (inactive)
- GI50 (RPMI-8226): 35.3 µM (inactive)
- GI50 (M14): > 100 µM (inactive)
- GI50 (SN12C): 63 µM (inactive)
- GI50 (HL-60): 42.9 µM (inactive)
- GI50 (SK-MEL-2): 65 µM (inactive)
- GI50 (786-0): 80 µM (inactive)
- GI50 (SK-MEL-5): 21.3 µM (inactive)
- GI50 (HCT-15): 34.3 µM
- GI50 (U-251): 34 µM (inactive)
- GI50 (K562): 33.6 µM (inactive)
- GI50 (SNB-75): 51.4 µM (inactive)
- GI50 (UACC-62): 20.7 µM (inactive)
- GI50 (A498): 25.9 µM (inactive)
- GI50 (CAKI-1): > 100 µM (inactive)
- GI50 (MDA-MB-435): 40.3 µM (inactive)
- GI50 (DU-145): 93.1 µM (inactive)
- GI50 (SF-539): 27.9 µM (inactive)
- GI50 (IGROV-1): 45.5 µM (inactive)
- GI50 (ACHN): 47.9 µM (inactive)
- GI50 (SF-295): 74.5 µM (inactive)
- GI50 (PC-3): 30.3 µM (inactive)
- GI50 (SK-OV-3): 21.7 µM (inactive)
- GI50 (MCF7): 41.5 µM (inactive)
- GI50 (LOX IMVI): 37 µM (inactive)
- GI50 (Hs-578T): 22.5 µM (inactive)
- GI50 (HCC 2998): 21.2 µM (inactive)
- GI50 (UO-31): 55.6 µM (inactive)
- GI50 (T47D): 71.3 µM (inactive)
